Measurements: patent publication US20240043470A1, “MACROCYCLIC COMPOUNDS AS PROTEASOME INHIBITORS” (CORNELL UNIVERSITY, priority 2017, published 2024)
Where two headings read alike, the source gives them in different places.

Experiments:
[1] = rcm bond
β5c of hu c-20S = β5c of hu c-20S (Homo sapiens (Human), UniProt P20618+P28074); assay: IC50 determination against β5c of human constitutive proteasome (suc-LLVY-AMC hydrolysis); type: biochemical; conditions: 0.2 nM c-20S, 25 μM suc-LLVY-AMC;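 further: IC50 obtained by fitting initial reaction velocities to a dose-dependent inhibition model, with SDS present as proteasome activator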
β5i of hu i-20S = β5i of hu i-20S (Homo sapiens (Human), UniProt P20618+P28062); assay: IC50 determination against β5i of human immunoproteasome (Ac-ANW-AMC hydrolysis); type: biochemical; conditions: β5i, 0.4 nM i-20S, 15 μM Ac-ANW-AMC;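 further: enzyme activity taken as the initial reaction velocity per well, with SDS added to activate the proteasome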
[2] = 16-membered ring
[3] = test system: IL-6 in LPS-stimulated human macrophages; assay: Inhibition of IL-6 in LPS-stimulated human macrophages (Q-PCR and ELISA); type: cell-based; conditions: LPS 50 ng/ml; 6 h gene expression (FIG. 1A), 24 h ELISA (FIG. 1B); compound added 15 minutes before LPS
Protocol: Monocytes were isolated from the blood of 2 healthy donors using CD14 magnetic beads and cultured with 20 ng/ml of MCSF for 24 hours to induce the differentiation into macrophages. 200,000 cells/wells in 96 wells plate were incubated with LPS (50 ng/ml) for 6 hours for RNA isolation and gene expression analysis (FIG. 1A) and 24 hours for ELISA (FIG. 1B). The proteasome inhibitor 4-13 used at the indicated concentration was added 15 minutes before adding LPS. At 6 hours, RNA were prepared using Qiagen RNA plus kit and cDNA were synthetized using the Thermofisher cDNA synthesis kit (FIG. 1A). Q-PCR was performed in duplicate and expression levels normalized to the level of the housekeeping gene ubiquitin. At 24 hours, supernatants were collected and IL-6 production quantified by ELISA (FIG. 1B).

[4] = amide bond, 16-membered ring, EDCI/HOBt/DIEA, DMF

Compound | IC50 (β5c of hu c-20S) | IC50 (β5i of hu i-20S) | also measured
CC(=O)N[C@H]1CC=CCOc2cccc(c2)C[C@@H](C(=O)NCC(F)(F)F)NC(=O)[C@H](CCc2ccccc2)NC1=O |  |  | ring closure, yield of all isomers ([1]; from C=CCOc1cccc(C[C@H](NC(=O)[C@H](CCc2ccccc2)NC(=O)[C@H](CC=C)NC(C)=O)C(=O)NCC(F)(F)F)c1, Grubbs 2nd generation catalyst, DCM, 24.9 mM, 40.0 °C, 4.0 h): 88.8%
CC(=O)N[C@H]1Cc2cccc(c2)OCC=CC[C@@H](C(=O)NCC(F)(F)F)NC(=O)[C@H](CCc2ccccc2)NC1=O |  |  | ring closure, yield of all isomers ([1]; from C=CCOc1cccc(C[C@H](NC(C)=O)C(=O)N[C@@H](CCc2ccccc2)C(=O)N[C@@H](CC=C)C(=O)NCC(F)(F)F)c1, Grubbs 2nd generation catalyst, DCM, 5.33 mM, 40.0 °C, 4.0 h): 47%
CC(C)(C)OC(=O)[C@@H]1CCCCCC=CCCCC(=O)N[C@@H](CC(=O)OCc2ccccc2)C(=O)N1 |  |  | ring closure, yield of all isomers ([1]; from C=CCCCCC[C@H](NC(=O)[C@H](CC(=O)OCc1ccccc1)NC(=O)CCCC=C)C(=O)OC(C)(C)C, Grubbs 2nd Generation catalyst, toluene, 1.27 mM, 40.0 °C, 16.0 h): 92.6%
COC(=O)[C@@H]1CCCCCC=CCCC(Cc2ccccc2)C(=O)N[C@@H](CC(=O)OCc2ccccc2)C(=O)N1 (some centres unmarked) |  |  | ring closure, yield of all isomers ([1]; from C=CCCCCC[C@H](NC(=O)[C@H](CC(=O)OCc1ccccc1)NC(=O)C(CCC=C)Cc1ccccc1)C(=O)OC, Grubbs 2nd generation, 1,2-dichloroethane, 10.75 mM, 50.0 °C, 24.0 h): 53%
O=C(NC1CCCC1)[C@@H]1CC=CCOc2cccc(c2)C[C@H](N2CCCC2=O)C(=O)N[C@@H](CCN2CCC(F)(F)CC2)C(=O)N1 |  |  | ring closure, yield of all isomers ([1]; from C=CCOc1cccc(C[C@@H](C(=O)N[C@@H](CCN2CCC(F)(F)CC2)C(=O)N[C@@H](CC=C)C(=O)NC2CCCC2)N2CCCC2=O)c1, Grubbs catalyst 2nd Generation, 1,2-dichloroethane, 5.07 mM, 60.0 °C, 12.0 h): 61.6%
O=C1CCc2cccc(c2)OCC=CC[C@@H](C(=O)NC2CCCC2)NC(=O)[C@H](CC(=O)N2CCCC2C2CC2)N1 (some centres unmarked) |  |  | ring closure, yield of all isomers ([1]; from C=CCOc1cccc(CCC(=O)N[C@@H](CC(=O)N2CCCC2C2CC2)C(=O)N[C@@H](CC=C)C(=O)NC2CCCC2)c1, Grubbs 2nd generation, 1,2-dichloroethane, 4.09 mM, 50.0 °C, 12.0 h): 46.7%
O=C1CCc2cccc(c2)OCC=CC[C@@H](C(=O)NC2CCCC2)NC(=O)[C@H](CCc2ccc(F)cc2)N1 |  |  | ring closure, yield of all isomers ([1]; from C=CCOc1cccc(CCC(=O)N[C@@H](CCc2ccc(F)cc2)C(=O)N[C@@H](CC=C)C(=O)NC2CCCC2)c1, Grubbs catalyst 2nd generation, 1,2-dichloroethane, […], 60.0 °C, 12.0 h): 65%
O=C1CCc2cccc(c2)OCCCC[C@@H](C(=O)NC2CCCC2)NC(=O)[C@H](CCc2ccc(F)cc2)N1 [Compound 3-39, (7S,10S)—N-Cyclopentyl-10-(4-fluorophenethyl)-9,12-dioxo-2-oxa-8,11-diaza-1(1,3)-benzenacyclotetradecaphane-7-carboxamide] | 38.6 µM | > 100 µM | 
O=C1CCc2cccc(c2)OCCCC[C@@H](C(=O)NCc2ccccc2F)NC(=O)[C@H](CCc2ccc(F)cc2)N1 [Compound 3-41] | 56 µM | > 100 µM | 
O=C1CCc2cccc(c2)OCCCC[C@@H](C(=O)NC2CCCC2)NC(=O)[C@H](CCN2CCC(F)(F)CC2)N1 [Compound 3-43] | 75.5 µM | > 100 µM | 
CN(Cc1ccccc1)C(=O)[C@@H]1CCCCOc2cccc(c2)C[C@H](N2CCCC2=O)C(=O)N[C@@H](CCc2ccc(F)cc2)C(=O)N1 [Compound 3-44] | 5.15 µM | > 100 µM | 
O=C1CCC/C=C\CCCCC[C@@H](C(=O)NCc2cccc3ccccc23)NC(=O)[C@H](CC(=O)N2CCCC2)N1 [Compound 4-05, (2S,5S,11Z)—N-(1-Naphthylmethyl)-3,16-dioxo-2-(2-oxo-2-pyrrolidin-1-yl-ethyl)-1,4-diazacyclohexadec-11-ene-5-carboxamide] | > 100 µM | 4.36 µM | ring closure, isolated yield ([2]; from (hex-5-enoyl)-Asp(pyrrolidin-1-yl amide)-((2S)-2-aminonon-8-enoic acid)-NHCH2(1-naphthyl)?, rcm bond, Grubbs II, CH2Cl2, 1.11 mM, 50.0 °C): 36%; ring closure, yield of all isomers ([1]; from C=CCCCCC[C@H](NC(=O)[C@H](CC(=O)N1CCCC1)NC(=O)CCCC=C)C(=O)NCc1cccc2ccccc12, Grubbs 2nd Generation catalyst, CH2Cl2, 1.11 mM, 50.0 °C, 20.0 h): 36%
O=C1CCCCCCCCCC[C@@H](C(=O)NCc2cccc3ccccc23)NC(=O)[C@H](CC(=O)N2CCCC2)N1 [Compound 4-06, (2S,5S)—N-(1-Naphthylmethyl)-3,16-dioxo-2-(2-oxo-2-pyrrolidin-1-yl-ethyl)-1,4-diazacyclohexadecane-5-carboxamide] | > 100 µM | 3.52 µM | 
O=C1CCCCCCCCC[C@@H](C(=O)NCc2cccc3ccccc23)NC(=O)[C@H](CC(=O)N2CCCC2)N1 [Compound 4-07] | > 100 µM | 61.3 µM | 
O=C1CCCCCCCCCC[C@@H](C(=O)NCc2cccc3ccccc23)NC(=O)[C@H](CC(=O)N2CCC[C@@H]2c2ccccc2)N1 [Compound 4-08] | > 100 µM | 33.4 µM | 
O=C1CCCCCCCCCC[C@@H](C(=O)NCc2ccccc2F)NC(=O)[C@H](CC(=O)N2CCCC2C2CC2)N1 (some centres unmarked) [Compound 4-13] | 0.274 µM | 0.018 µM | Inhibition of IL-6 in LPS-stimulated human macrophages [3]: inhibition of IL-6
O=C1CCCCCCCCOC[C@@H](C(=O)NCc2cccc3ccccc23)NC(=O)[C@H](CC(=O)N2CCCC2)N1 [Compound 4-15, (3S,6S)—N-(Naphthalen-1-ylmethyl)-5,8-dioxo-6-(2-oxo-2-(pyrrolidin-1-yl)ethyl)-1-oxa-4,7-diazacyclohexadecane-3-carboxamide] | 3.67 µM | 4.71 µM | 
O=C1CCCCCCCCOC[C@@H](C(=O)NCc2ccccc2F)NC(=O)[C@H](CC(=O)N2CCC[C@@H]2c2ccccc2)N1 [Compound 4-16] | 4.12 µM | 51.3 µM | 
O=C1CCCCCCCCCC[C@@H](C(=O)NCc2ccccc2F)NC(=O)[C@H](CC(=O)N2CCCC2C2COC2)N1 (some centres unmarked) [Compound 4-17] | 0.88 µM | 0.11 µM | 
(2-benzylhex-5-enoyl)-Asp(OBn)-(2-aminonon-8-enoic acid)-OMe? |  |  | ring closure, isolated yield ([2]; the molecule shown is the open-chain precursor, rcm bond, Grubbs II, DCE, […], 50.0 °C): 53%
(5S,8S,11S)-6-Methyl-7,10-dioxo-11-(2-oxopyrrolidin-1-yl)-8-phenethyl-N-(2,2,2-trifluoroethyl)-2-oxa-6,9-diaza-1,3(1,3)-dibenzenacyclododecaphane-5-carboxamide |  |  | ring closure, yield after HPLC ([4]; 18.3 mM, 25.0 °C): 26%
(5S,8S,11S)-7,10-Dioxo-11-(2-oxopyrrolidin-1-yl)-8-(2-(piperidin-1-yl)ethyl)-N-(2,2,2-trifluoroethyl)-2-oxa-6,9-diaza-1,3(1,3)-dibenzenacyclododecaphane-5-carboxamide |  |  | ring closure, yield after HPLC ([4]; 15.8 mM, 20.0 °C): 24.2%
(5S,8S,11S)-11-Acetamido-7,10-dioxo-8-propyl-N-(2,2,2-trifluoroethyl)-2-oxa-6,9-diaza-1,3(1,3)-dibenzenacyclododecaphane-5-carboxamide |  |  | ring closure, isolated yield ([2]; amide bond, HATU/DIEA, DMF, […], 0.0 °C): 18.7%
(7S,10S,13S,E)-13-Acetamido-9,12-dioxo-10-phenethyl-N-(2,2,2-trifluoroethyl)-2-oxa-8,11-diaza-1(1,3)-benzenacyclotetradecaphan-4-ene-7-carboxamide |  |  | ring closure, isolated yield ([2]; rcm bond, Grubbs II, DCM, 5.3 mM, 40.0 °C): 47%
(hex-5-enoyl)-Asp(OBn)-((2S)-2-aminonon-8-enoic acid)-OtBu? |  |  | ring closure, isolated yield ([2]; the molecule shown is the open-chain precursor, rcm bond, Grubbs II, toluene, 1.27 mM, 40.0 °C): 92.6%
Ac-Gly(allyl)-hPhe-Phe(3-OAllyl)-NHCH2CF3? |  |  | ring closure, isolated yield ([2]; the molecule shown is the open-chain precursor, rcm bond, Grubbs II, DCM, 24.9 mM, 40.0 °C): 88.8%
